Reference: PubChem BioAssay AID248 (DTP/NCI, 2004)
Values joined by “and” are separate entries in the source; they are usually repeats but may differ in a detail not shown here. Identical values can stand only once. Inconclusive results and toxic doses are left out. No stated cut-off is given here; in the data, active means T/C of 150% or more; inactive means T/C below 125%.

System: L1210 leukemia ip in BDF1 mice, survival T/C
Assay: NCI In Vivo Anticancer Drug Screen. Data for tumor model L1210 Leukemia (intraperitoneal) in B6D2F1 (BDF1) mice
Conditions: endpoint: mean survival time, higher = longer survival
Method in brief: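 Value reflects the ratio of survival in compound-treated mice to survival in vehicle-treated controls, with both groups carrying the same transplanted tumor.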

[1] = dose: 50.0 mg/kg/injection, schedule: Q04DX002 (ip), vehicle: Klucel (hydroxypropylcellulose) (HPC)
[2] = dose: 100.0 mg/kg/injection, schedule: Q01DX009 (ip), vehicle: Klucel (hydroxypropylcellulose) (HPC)
[3] = dose: 100.0 mg/kg/injection, schedule: Q04DX002 (ip), vehicle: Klucel (hydroxypropylcellulose) (HPC)
[4] = dose: 200.0 mg/kg/injection, schedule: Q01DX009 (ip), vehicle: Klucel (hydroxypropylcellulose) (HPC)
[5] = dose: 200.0 mg/kg/injection, schedule: Q04DX002 (ip), vehicle: Klucel (hydroxypropylcellulose) (HPC)
[6] = dose: 400.0 mg/kg/injection, schedule: Q01DX009 (ip), vehicle: Klucel (hydroxypropylcellulose) (HPC)
[7] = dose: 50.0 mg/kg/injection, schedule: Q01DX001 (ip), vehicle: saline
[8] = dose: 100.0 mg/kg/injection, schedule: Q01DX001 (ip), vehicle: saline
[9] = dose: 400.0 mg/kg/injection, schedule: Q04DX002 (ip), vehicle: Klucel (hydroxypropylcellulose) (HPC)
[10] = dose: 100.0 mg/kg/injection, schedule: Q04DX003 (ip), vehicle: saline with Tween-80
[11] = dose: 200.0 mg/kg/injection, schedule: Q04DX003 (ip), vehicle: saline with Tween-80
[12] = dose: 400.0 mg/kg/injection, schedule: Q04DX003 (ip), vehicle: saline with Tween-80
[13] = dose: 200.0 mg/kg/injection, schedule: Q01DX001 (ip), vehicle: saline
[14] = dose: 400.0 mg/kg/injection, schedule: Q01DX001 (ip), vehicle: saline
[15] = dose: 100.0 mg/kg/injection, schedule: Q04DX003 (ip), vehicle: saline
[16] = dose: 200.0 mg/kg/injection, schedule: Q04DX003 (ip), vehicle: saline
[17] = dose: 100.0 mg/kg/injection, schedule: Q01DX001 (ip), vehicle: carboxymethylcellulose (CMC)
[18] = dose: 200.0 mg/kg/injection, schedule: Q01DX001 (ip), vehicle: carboxymethylcellulose (CMC)
[19] = dose: 400.0 mg/kg/injection, schedule: Q01DX001 (ip), vehicle: carboxymethylcellulose (CMC)
[20] = dose: 100.0 mg/kg/injection, schedule: Q01DX009 (ip), vehicle: saline with Tween-80
[21] = dose: 200.0 mg/kg/injection, schedule: Q01DX009 (ip), vehicle: saline with Tween-80
[22] = dose: 400.0 mg/kg/injection, schedule: Q01DX009 (ip), vehicle: saline with Tween-80
[23] = dose: 100.0 mg/kg/injection, schedule: Q04DX003 (ip), vehicle: Klucel (hydroxypropylcellulose) (HPC)
[24] = dose: 200.0 mg/kg/injection, schedule: Q04DX003 (ip), vehicle: Klucel (hydroxypropylcellulose) (HPC)
[25] = dose: 400.0 mg/kg/injection, schedule: Q04DX003 (ip), vehicle: Klucel (hydroxypropylcellulose) (HPC)
[26] = dose: 50.0 mg/kg/injection, schedule: Q01DX009 (ip), vehicle: Klucel (hydroxypropylcellulose) (HPC)

Measured: T/C

CC(C)=CCC1(CC=C(C)C)C(=O)N(c2ccccc2)N(c2ccccc2)C1=O
inactive: [1] 93 % of control | [2] 93 % of control | [3] 101 % of control | [4] 98 % of control | [5] 97 % of control | [6] 90 % of control

NC(=S)NN=C1CCC1
inactive: [7] 98 % of control | [8] 93 % of control and 91 % of control

O=C1/C(=C\c2ccc(OCc3ccccc3)c(OCc3ccccc3)c2)N2CCC1CC2
inactive: [3] 102 % of control | [5] 115 % of control | [9] 105 % of control

Cc1ncc(CO)c(/C=N/OCc2nnc(Nc3ccccc3)s2)c1O
inactive: [10] 92 % of control | [11] 101 % of control | [12] 106 % of control

c1ccc(-c2nc(-c3nccc4ccccc34)oc2-c2ccccc2)cc1
inactive: [8] 97 % of control | [13] 88 % of control | [14] 93 % of control

CCCc1c(N)nc(=S)[nH]c1C(=O)O
inactive: [2] 102 % of control | [15] 96 % of control | [4] 97 % of control | [16] 119 % of control | [6] 94 % of control

COC1(c2ccccc2)ON=C(c2ccccc2)C=C1c1ccccc1 (configuration not stated)
inactive: [15] 93 % of control | [16] 91 % of control | dose: 400.0 mg/kg/injection, schedule: Q04DX003 (ip), vehicle: saline 99 % of control

O=C(/C=C/c1ccccc1)C(Cl)C(Cl)c1ccccc1 (configuration not stated)
inactive: dose: 50.0 mg/kg/injection, schedule: Q01DX009 (sc), vehicle: olive oil, sesame oil, peanut oil 101 % of control | dose: 100.0 mg/kg/injection, schedule: Q01DX009 (sc), vehicle: olive oil, sesame oil, peanut oil 101 % of control | dose: 200.0 mg/kg/injection, schedule: Q01DX009 (sc), vehicle: olive oil, sesame oil, peanut oil 97 % of control

Cc1cc(-n2cnc3c(Cl)ncnc32)ccc1[N+](=O)[O-]
inactive: dose: 50.0 mg/kg/injection, schedule: Q01DX001 (ip), vehicle: carboxymethylcellulose (CMC) 110 % of control | [17] 101 % of control | [18] 98 % of control | [19] 112 % of control

NC(=O)Nc1ccc(Br)cc1Br
inactive: [3] 102 % of control | [5] 94 % of control

Cc1nnc(N)nc1C
inactive: [3] 95 % of control | [5] 103 % of control | [9] 95 % of control

Cc1ccc(NC(=O)OCCSC(=O)COc2ccc(Cl)cc2Cl)cc1
inactive: [20] 93 % of control | [21] 98 % of control | [22] 104 % of control

CN(C)c1nn[nH]n1
inactive: [23] 95 % of control | [24] 88 % of control | [25] 95 % of control

O=C(OCCCCCCCOC(=O)c1ccc([N+](=O)[O-])cc1)c1ccc([N+](=O)[O-])cc1
inactive: dose: 100.0 mg/kg/injection, schedule: Q01DX001 (ip), vehicle: other 101 % of control | dose: 200.0 mg/kg/injection, schedule: Q01DX001 (ip), vehicle: other 96 % of control | dose: 400.0 mg/kg/injection, schedule: Q01DX001 (ip), vehicle: other 95 % of control

Nc1c(Br)cccc1Br
inactive: [7] 101 % of control | [8] 109 % of control | [13] 103 % of control | [14] 97 % of control

O=C1C=CC(=O)N1c1ccccc1[N+](=O)[O-]
inactive: dose: 1.5 mg/kg/injection, schedule: Q01DX009 (ip), vehicle: Klucel (hydroxypropylcellulose) (HPC) 97 % of control | dose: 3.0 mg/kg/injection, schedule: Q01DX009 (ip), vehicle: Klucel (hydroxypropylcellulose) (HPC) 103 % of control | dose: 6.0 mg/kg/injection, schedule: Q01DX009 (ip), vehicle: Klucel (hydroxypropylcellulose) (HPC) 94 % of control

O=C1C(c2ccccc2)=C(c2ccccc2)C2(c3ccccc3)CN=NC12c1ccccc1 (configuration not stated)
inactive: [23] 90 % of control | [24] 94 % of control | [25] 92 % of control

CC1(C)C=CC2CC2(C)C(=O)C1 (configuration not stated)
inactive: dose: 100.0 mg/kg/injection, schedule: Q04DX002 (ip), vehicle: saline with Tween-80 98 % of control | dose: 200.0 mg/kg/injection, schedule: Q04DX002 (ip), vehicle: saline with Tween-80 112 % of control | dose: 400.0 mg/kg/injection, schedule: Q04DX002 (ip), vehicle: saline with Tween-80 102 % of control

CCCCCCC1=NC(C)(C)CO1
inactive: dose: 25.0 mg/kg/injection, schedule: Q01DX009 (ip), vehicle: saline with Tween-80 102 % of control | dose: 50.0 mg/kg/injection, schedule: Q01DX009 (ip), vehicle: saline with Tween-80 97 % of control | dose: 50.0 mg/kg/injection, schedule: Q04DX003 (ip), vehicle: saline 99 % of control | [20] 102 % of control | [15] 97 % of control | [21] 102 % of control | [16] 91 % of control

O=C(O)CCNc1ccccc1C(=O)O
inactive: [17] 100 % of control | [18] 96 % of control | [19] 100 % of control

Cc1ccc(C)c(NC(=O)Oc2ccc(F)cc2Cl)c1
inactive: [26] 91 % of control | [2] 90 % of control | [23] 94 % of control | [4] 87 % of control | [24] 105 % of control

CCCCCCCCCCCCCC(=O)O
inactive: [23] 92 % of control | [24] 94 % of control | [25] 95 % of control

CC(=O)OCCN1c2ccccc2Sc2cnccc21
inactive: [20] 104 % of control | [10] 104 % of control | [21] 97 % of control | [11] 110 % of control | [22] 104 % of control | [12] 104 % of control

CCCC(=O)OC(OC(=O)CCC)c1ccco1
inactive: [8] 92 % of control | [13] 109 % of control | [14] 109 % of control

Nc1nc(Cl)c(N=Nc2ccc(Cl)cc2)c(NC2CC(O)C(CO)C2)n1 (configuration not stated)
inactive: [3] 104 % of control | [5] 100 % of control | [9] 96 % of control

COc1ccc(N=NN(C)C(=O)c2ccccc2)cc1
inactive: [26] 108 % of control | dose: 75.0 mg/kg/injection, schedule: Q01DX001 (ip), vehicle: Klucel (hydroxypropylcellulose) (HPC) 112 % of control | [2] 120 % of control | dose: 150.0 mg/kg/injection, schedule: Q01DX001 (ip), vehicle: Klucel (hydroxypropylcellulose) (HPC) 111 % of control | dose: 300.0 mg/kg/injection, schedule: Q01DX001 (ip), vehicle: Klucel (hydroxypropylcellulose) (HPC) 107 % of control

CC(=O)C12OC(C)(C)OC1CC1C3CCC4=CC(=O)C=CC4(C)C3(F)C(O)CC12C (configuration not stated)
inactive: dose: 12.5 mg/kg/injection, schedule: Q04DX002 (ip), vehicle: Klucel (hydroxypropylcellulose) (HPC) 104 % of control | dose: 25.0 mg/kg/injection, schedule: Q04DX002 (ip), vehicle: Klucel (hydroxypropylcellulose) (HPC) 107 % of control | [1] 107 % of control
